Test [1] deals with HSV-1. Put plainly: In vitro activity, HSV-1 infected Vero cells. In kind it is cell-based. Here is the method:
(§1) The in vitro activity of the new compounds was measured as described in WO2017/174640 and in WO2019/068817.

For test [2], the system named is HSV-2. Put plainly: In vitro activity, HSV-2 infected Vero cells. In kind it is cell-based. Here is the method:
as §1

Test [3] deals with HSV-1. Put plainly: Second oHSV experiment (repeated virus injection): number of dead animals by day. In kind it is in vivo, mice. Particulars: for Number of dead animals by day: n=10; for rescue of mice from virus-induced death: second experiment, multiple intratumoral HSV injections, 10 mg/kg po. As for the experimental part: The methods of the first experiment were used and the experimental design was modified in the second experiment as follows: • 1. The oncolytic herpesvirus was, in contrast to the first experiment, injected multiple times at a constant dose at distinct intervals. • 2. In addition to Example 7(-) used in the first experiment, the efficacy of a series of helicase primase inhibitors was tested in the second experiment to enable the class of helicase primase inhibitors in general.
Pharmacological animal groups (10 animals per group, 80 animals in total and 5 animals per group in the satellite group; 50 animals in total used for analysis of plasma and tumor samples) were organized as such: • 1. Control virus-untreated group: test compound vehicle, oral gavage, once a day, for 2 days and starting 48 h after each virus injection time-point. • 2. Control virus vehicle-treated group: 100 μL of virus vehicle by intratumoral injection when tumors reached an average volume of ˜50 mm^3 (i.e. on day 11) then 2 injections spaced 5 days apart from each other; with test compound vehicle, oral gavage, once a day, for 2 days and starting 48 h after each virus injection time-point. • 3. HSV-1 (5×10^7 pfu)-treated group: 100 μL of HSV-1 (5×10^7) by intratumoral injection when tumors reached an average volume of ˜50 mm^3 (i.e. on day 11) then 2 injections spaced 5 days apart from each other; with test compound vehicle, oral gavage, once a day, for 2 days and starting 48 h after each virus injection time-point and with anti-PD-1 vehicle, intraperitoneal injection (100 μL PBS) on the same day as the virus injection, and then 3 administrations spaced 3 days apart from each other (days 11, 14, 17 and 20). • 4. HSV-1 (5×10^7 pfu)+anti-PD1-treated group: 100 μL of HSV-1 (5×10^7 pfu) intratumoral injection when tumors reached an average volume of ˜50 mm^3 (i.e. on day 11) then 2 injections spaced 5 days apart from each other; with test compound vehicle, oral gavage, once a day, for 2 days and starting 48 h after each virus injection time-point and with anti-PD-1 (5 mg/kg), intraperitoneal injection on the same day as the virus injection, and then 3 administrations spaced 3 days apart from each other (days 11, 14, 17 and 20). • 5. HSV-1 (5×10^7 pfu)-Example 10—treated group: 100 μL of HSV-1 (5×10^7 pfu) intratumoral injection when tumors reached an average volume of ˜50 mm^3 (i.e. on day 11) then 2 injections spaced 5 days apart from each other; with Example 10 (10 mg/kg), oral gavage, once a day, for 2 days and starting 48 h after each virus injection time-point (days 13, 14, 18, 19, 23 and 24). • 6. HSV-1 (5×10^7 pfu)-pritelivir-treated group: 100 μL of HSV-1 (5×10^7 pfu) intratumoral injection when tumors reached an average volume of ˜50 mm^3 (i.e. on day 11) then 2 injections spaced 5 days apart from each other; with pritelivir (10 mg/kg), oral gavage, once a day, for 2 days and starting 48 h after each virus injection time-point (days 13, 14, 18, 19, 23 and 24). • 7. HSV-1 (5×10^7 pfu)-amenamevir-treated group: 100 μL of HSV-1 (5×10^7 pfu) intratumoral injection when tumors reached an average volume of ˜5 0mm^3 (i.e. on day 11) then 2 injections spaced 5 days apart from each other; with amenamevir (10 mg/kg), oral gavage, once a day, for 2 days and starting 48 h after each virus injection time-point (days 13, 14, 18, 19, 23 and 24). • 8. HSV-1 (5×10^7 pfu)-Example 10+anti-PD1-treated group: 100 μL of HSV-1 (5×10^7 pfu) intratumoral injection when tumors reached an average volume of ˜50 mm^3 (i.e. on day 11) then 2 injections spaced 5 days apart from each other; with Example 10 (10 mg/kg), oral gavage, once a day, for 2 days and starting 48 h after each virus injection time-point (days 13, 14, 18, 19, 23 and 24) and with anti-PD-1 (5 mg/kg), intraperitoneal injection on the same day as the virus injection and then 3 administrations spaced 3 days apart each other (days 11, 14, 17 and 20). Results of the Second oHSV Experiment […]

The structures appear in SMILES notation.

Broadly, the IC50 is the point on the concentration scale where inhibition reaches its midpoint. `Cc1nc(N(C)C(=O)C2Cc3ccc(-c4cc(F)ccc4F)cc3C2)sc1S(C)(=N)=O` (single isomer, unassigned) [Example 5, 5-(2,5-Difluorophenyl)-N-methyl-N-(4-methyl-5-(S-methylsulfonimidoyl)thiazol-2-yl)-2,3-dihydro-1H-indene-2-carboxamide]: the IC50 in test [1] and in test [2] was 20000 nM each time.

In the case of `Cc1nc(N(C)C(=O)C2Cc3ccc(-c4cc(F)ccc4F)cc3C2)sc1S(C)(=N)=O` (single isomer, unassigned) [Example 6, 5-(2,5-Difluorophenyl)-N-methyl-N-(4-methyl-5-(S-methylsulfonimidoyl)thiazol-2-yl)-2,3-dihydro-1H-indene-2-carboxamide], the figures for the IC50 in test [1] and in test [2] were 75 nM and 750 nM, respectively.

Turning to `Cc1nc(N(C)C(=O)C2Cc3ccc(-c4cc(F)ccc4F)cc3C2)sc1S(C)(=N)=O` (single isomer, unassigned) [Example 8, 5-(2,5-Difluorophenyl)-N-methyl-N-(4-methyl-5-(S-methylsulfonimidoyl)thiazol-2-yl)-2,3-dihydro-1H-indene-2-carboxamide], the half-maximal inhibitory concentration (IC50) came to 175 nM in test [1] and 1500 nM in test [2].

As for `Cc1nc(N(C)C(=O)C2Cc3ccc(-c4cc(F)ccc4F)cc3C2)sc1S(C)(=N)=O` (single isomer, unassigned) [Example 9, 5-(2,5-Difluorophenyl)-N-methyl-N-(4-methyl-5-(S-methylsulfonimidoyl)thiazol-2-yl)-2,3-dihydro-1H-indene-2-carboxamide], the IC50 worked out at 10000 nM in test [1] and 45000 nM in test [2].

Consider `Cc1nc(N(C)C(=O)C2Cc3ccc(-c4cc(F)ccc4F)cc3C2)sc1S(N)(=O)=O` (single isomer, unassigned; (+)) [Example 3, (+)-5-(2,5-difluorophenyl)-N-methyl-N-(4-methyl-5-sulfamoylthiazol-2-yl)-2,3-dihydro-1H-indene-2-carboxamide], for which the IC50 in test [1] was found to be 0.5 nM; in test [2] it was 16 nM.

As to `Cc1nc(N(C)C(=O)Cc2ccc(-c3cc(F)ccc3F)cc2)sc1S(N)(=O)=O` [Example 10, 2-(2′,5′-Difluoro-[1,1′-biphenyl]-4-yl)-N-methyl-N-(4-methyl-5-sulfamoylthiazol-2-yl)acetamide], the “Number of dead animals by day” value is 0 in test [3] (day 7, HSV-1 5×10^7 pfu + Example 10 10 mg/kg po); 0 in test [3] (day 7, HSV-1 5×10^7 pfu + anti-PD-1 5 mg/kg ip + Example 10 10 mg/kg po); 0 in test [3] (day 9, HSV-1 5×10^7 pfu + Example 10 10 mg/kg po); 0 in test [3] (day 9, HSV-1 5×10^7 pfu + anti-PD-1 5 mg/kg ip + Example 10 10 mg/kg po); 0 in test [3] (day 11, HSV-1 5×10^7 pfu + Example 10 10 mg/kg po); 0 in test [3] (day 11, HSV-1 5×10^7 pfu + anti-PD-1 5 mg/kg ip + Example 10 10 mg/kg po). The “Number of dead animals by day” value in test [3] (day 14, HSV-1 5×10^7 pfu + Example 10 10 mg/kg po) worked out at 0; in test [3] (day 14, HSV-1 5×10^7 pfu + anti-PD-1 5 mg/kg ip + Example 10 10 mg/kg po), 0; in test [3] (day 16, HSV-1 5×10^7 pfu + Example 10 10 mg/kg po), 0; in test [3] (day 16, HSV-1 5×10^7 pfu + anti-PD-1 5 mg/kg ip + Example 10 10 mg/kg po), 0; in test [3] (day 18, HSV-1 5×10^7 pfu + Example 10 10 mg/kg po), 1; in test [3] (day 18, HSV-1 5×10^7 pfu + anti-PD-1 5 mg/kg ip + Example 10 10 mg/kg po) it was 1. The “Number of dead animals by day” value is listed as 1 in test [3] (day 21, HSV-1 5×10^7 pfu + Example 10 10 mg/kg po) and 1 in test [3] (day 21, HSV-1 5×10^7 pfu + anti-PD-1 5 mg/kg ip + Example 10 10 mg/kg po). Besides, in test [3], the “rescue of mice from virus-induced death” value is listed as “the mice can be rescued”.

Turning to `Cc1cccc(C)c1N(CC(=O)Nc1ccc(-c2ncon2)cc1)C(=O)C1CCS(=O)(=O)CC1` [amenamevir, Amenamevir], the “Number of dead animals by day” value in test [3] (day 7, HSV-1 5×10^7 pfu + amenamevir 10 mg/kg po) amounted to 0; in test [3] (day 9, HSV-1 5×10^7 pfu + amenamevir 10 mg/kg po) it was 0; in test [3] (day 11, HSV-1 5×10^7 pfu + amenamevir 10 mg/kg po), 0; in test [3] (day 14, HSV-1 5×10^7 pfu + amenamevir 10 mg/kg po), 0; in test [3] (day 16, HSV-1 5×10^7 pfu + amenamevir 10 mg/kg po), 0; in test [3] (day 18, HSV-1 5×10^7 pfu + amenamevir 10 mg/kg po), 2. Moreover, the “Number of dead animals by day” value in test [3] (day 21, HSV-1 5×10^7 pfu + amenamevir 10 mg/kg po) worked out at 2. Besides, the “rescue of mice from virus-induced death” value in test [3] is listed as “the mice can be rescued”.

As to `Cc1nc(N(C)C(=O)Cc2ccc(-c3ccccn3)cc2)sc1S(N)(=O)=O` [pritelivir, Pritelivir], the “Number of dead animals by day” value was determined as 0 in test [3] (day 7, HSV-1 5×10^7 pfu + pritelivir 10 mg/kg po); 0 in test [3] (day 9, HSV-1 5×10^7 pfu + pritelivir 10 mg/kg po); 0 in test [3] (day 11, HSV-1 5×10^7 pfu + pritelivir 10 mg/kg po); 0 in test [3] (day 14, HSV-1 5×10^7 pfu + pritelivir 10 mg/kg po); 0 in test [3] (day 16, HSV-1 5×10^7 pfu + pritelivir 10 mg/kg po); 0 in test [3] (day 18, HSV-1 5×10^7 pfu + pritelivir 10 mg/kg po). The “Number of dead animals by day” value in test [3] (day 21, HSV-1 5×10^7 pfu + pritelivir 10 mg/kg po) stood at 0. In addition, the “rescue of mice from virus-induced death” value in test [3] is reported as “the mice can be rescued”.

(Values after US20240408068A1, “Helicase Primase Inhibitors For Treating Cancer In A Combination Therapy With Oncolytic Viruses” (priority 2018, published 2024).)
